{
  "source": "patent US8580793B2",
  "about": "“Use of kinase inhibitor for the treatment of thymoma” (Nerviano Medical Services S.r.l., priority 2009, dated 2013)",
  "tested_on": "thymic carcinoma",
  "assay": "Phase I clinical trial, objective tumor response in thymic carcinoma patients (RECIST)",
  "type": "in vivo, human",
  "details": "150 mg daily; for decrease in the sum of target lesions compared to baseline: patient; for tumor response as per RECIST criteria: thymic carcinoma patient, 4 days on/3 days off for 3 weeks in 4-week cycle",
  "description": "An objective tumor response was obtained in a patient, first diagnosed with thymic carcinoma in May 2002 and having had their third progression of disease with metastases to lung in July 2007, entered the phase I clinical trial in September 2007. […] The patient, prior to be treated in the clinical trial, received other treatments for their thymic carcinoma, as follows: from January 2005 to June 2005: Adriamycin®, Cytoxan®, Cisplatin; from February 2006 to May 2006: Ifosfamide; from October 2006 to June 2007: Taxol®, Carboplatin; from June 2007 to July 2007: Adriamycin®, Cytoxan®, Vincristine. The patient had also surgery in May 2002 and radiotherapy in July 2002 and July 2006.\nAnother objective tumor response was obtained in a patient, first diagnosed with thymic carcinoma in May 2006, becoming metastatic to lung, bones and peritoneum in October 2007. The patient started treatment in the phase I clinical trial in December 2008. […] The patient, prior to be treated in the clinical trial, received one line of chemotherapy (cisplatin/gemcitabine) from November 2007 to March 2008; they had surgery in May 2006 and radiotherapy in September 2006.",
  "data": [
    {"smiles": "CNC(=O)c1nn(C)c2c1C(C)(C)Cc1cnc(Nc3ccc(N4CCN(C)CC4)cc3)nc1-2", "note": "[compound of formula (I), 8-[4-(4-methyl-piperazin-1-yl)-phenylamino]-1,4,4-trimethyl-4,5-dihydro-1H-pyrazolo[4,3-h]quinazoline-3-carboxylic acid methylamide]", "values": [
      {"measurement": "decrease in the sum of target lesions compared to baseline", "setting": "PR confirmed one month later", "value": 40, "unit": "%"},
      {"measurement": "decrease in the sum of target lesions compared to baseline", "setting": "after 6 cycles", "value": 30, "unit": "%"},
      {"measurement": "decrease in the sum of target lesions compared to baseline", "setting": "after 10 cycles", "value": 31.2, "unit": "%"},
      {"measurement": "decrease in the sum of target lesions compared to baseline", "setting": "documented until cycle 13", "value": 37.6, "unit": "%"},
      {"measurement": "tumor response as per RECIST criteria", "setting": "after 6 cycles", "value": "partial tumor response (PR)"},
      {"measurement": "tumor response as per RECIST criteria", "setting": "after 10 cycles", "value": "partial tumor response (PR)"}
    ]}
  ]
}
